# Measurements from ChEMBL document CHEMBL1201862, “PubChem BioAssay data set” (2004).
#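 Briefly, cells in 96-well plates were exposed to five compound concentrations for 48 h, and endpoints were estimated by linear interpolation. The concentration for 50% growth inhibition is given as GI50.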 Activity calls are given as the source filed them. No stated cut-off is given here; in the data, active = GI50 up to about 1.1 µM and inactive = higher.
# What was measured:
# Test in all cases: NCI anticancer screen, dose series, 48 h
# 786-0 = system: 786-0
# A498 = system: A498
# A549 = system: A549
# ACHN = system: ACHN
# BT-549 = system: BT-549
# CAKI-1 = system: CAKI-1
# CCRF-CEM = system: CCRF-CEM
# COLO 205 = system: COLO 205
# DU-145 = system: DU-145
# HCC 2998 = system: HCC 2998
# HCT-116 = system: HCT-116
# HCT-15 = system: HCT-15
# HL-60 = system: HL-60
# HOP-62 = system: HOP-62
# HOP-92 = system: HOP-92
# HT-29 = system: HT-29
# Hs-578T = system: Hs-578T
# IGROV-1 = system: IGROV-1
# K562 = system: K562
# KM12 = system: KM12
# LOX IMVI = system: LOX IMVI
# M14 = system: M14
# MCF7 = system: MCF7
# MDA-MB-231 = system: MDA-MB-231
# MDA-MB-435 = system: MDA-MB-435
# MDA-N = system: MDA-N
# MOLT-4 = system: MOLT-4
# Malme-3M = system: Malme-3M
# NCI-H226 = system: NCI-H226
# NCI-H23 = system: NCI-H23
# NCI-H460 = system: NCI-H460
# NCI-H522 = system: NCI-H522
# NCI/ADR-RES = system: NCI/ADR-RES
# OVCAR-3 = system: OVCAR-3
# OVCAR-4 = system: OVCAR-4
# OVCAR-5 = system: OVCAR-5
# OVCAR-8 = system: OVCAR-8
# PC-3 = system: PC-3
# RPMI-8226 = system: RPMI-8226
# RXF 393 = system: RXF 393
# SF-268 = system: SF-268
# SF-295 = system: SF-295
# SF-539 = system: SF-539
# SK-MEL-28 = system: SK-MEL-28
# SK-MEL-2 = system: SK-MEL-2
# SK-MEL-5 = system: SK-MEL-5
# SN12C = system: SN12C
# SNB-19 = system: SNB-19
# SNB-75 = system: SNB-75
# SR = system: SR
# SW-620 = system: SW-620
# T47D = system: T47D
# TK-10 = system: TK-10
# U-251 = system: U-251
# UACC-257 = system: UACC-257
# UACC-62 = system: UACC-62
# UO-31 = system: UO-31
# EKVX = system: EKVX
# SK-OV-3 = system: SK-OV-3
smiles,measurement,setting,value
CC(=O)OCC1OC(n2c3c(c(-c4ccc(Cl)cc4)c(C#N)c2=S)C(=O)CC(C)(C)C3)C(OC(C)=O)C(OC(C)=O)C1OC(C)=O (configuration not stated),GI50,786-0,12.8 µM (inactive)
same,GI50,A498,30.3 µM (inactive)
same,GI50,A549,38 µM (inactive)
same,GI50,ACHN,28.5 µM (inactive)
same,GI50,BT-549,3.14 µM (inactive)
same,GI50,CAKI-1,11.4 µM (inactive)
same,GI50,CCRF-CEM,3.95 µM (inactive)
same,GI50,COLO 205,25 µM (inactive)
same,GI50,DU-145,50.9 µM (inactive)
same,GI50,HCC 2998,4.68 µM (inactive)
same,GI50,HCT-116,19.1 µM (inactive)
same,GI50,HCT-15,14.2 µM
same,GI50,HL-60,5.33 µM (inactive)
same,GI50,HOP-62,42 µM (inactive)
same,GI50,HOP-92,18.5 µM (inactive)
same,GI50,HT-29,15.7 µM (inactive)
same,GI50,Hs-578T,20.7 µM (inactive)
same,GI50,IGROV-1,40.7 µM (inactive)
same,GI50,K562,3.23 µM (inactive)
same,GI50,KM12,29.7 µM (inactive)
same,GI50,LOX IMVI,7.55 µM (inactive)
same,GI50,M14,27.5 µM (inactive)
same,GI50,MCF7,7.98 µM (inactive)
same,GI50,MDA-MB-231,15.2 µM (inactive)
same,GI50,MDA-MB-435,12.7 µM (inactive)
same,GI50,MDA-N,11.5 µM (inactive)
same,GI50,MOLT-4,4.45 µM (inactive)
same,GI50,Malme-3M,43.3 µM (inactive)
same,GI50,NCI-H226,27.5 µM (inactive)
same,GI50,NCI-H23,28.8 µM (inactive)
same,GI50,NCI-H460,33.7 µM (inactive)
same,GI50,NCI-H522,4.94 µM (inactive)
same,GI50,NCI/ADR-RES,12 µM (inactive)
same,GI50,OVCAR-3,32.7 µM (inactive)
same,GI50,OVCAR-4,17.8 µM (inactive)
same,GI50,OVCAR-5,35.8 µM (inactive)
same,GI50,OVCAR-8,9.55 µM (inactive)
same,GI50,PC-3,10.9 µM (inactive)
same,GI50,RPMI-8226,4.59 µM (inactive)
same,GI50,RXF 393,7.48 µM (inactive)
same,GI50,SF-268,12.1 µM (inactive)
same,GI50,SF-295,32.6 µM (inactive)
same,GI50,SF-539,21.1 µM (inactive)
same,GI50,SK-MEL-28,23.6 µM (inactive)
same,GI50,SK-MEL-2,23.4 µM (inactive)
same,GI50,SK-MEL-5,11.7 µM (inactive)
same,GI50,SN12C,16 µM (inactive)
same,GI50,SNB-19,> 45.4 µM (inactive)
same,GI50,SNB-75,11.4 µM (inactive)
same,GI50,SR,4.12 µM (inactive)
same,GI50,SW-620,7.06 µM (inactive)
same,GI50,T47D,6.98 µM (inactive)
same,GI50,TK-10,> 100 µM (inactive)
same,GI50,U-251,19.1 µM (inactive)
same,GI50,UACC-257,15.2 µM (inactive)
same,GI50,UACC-62,7.62 µM (inactive)
same,GI50,UO-31,39.2 µM (inactive)
CC(C)/C=N\N1C(N)=C(C#N)C(C#N)(C#N)C1C(C)C (configuration not stated),GI50,786-0,60.7 µM (inactive)
same,GI50,A498,51.3 µM (inactive)
same,GI50,A549,60.4 µM (inactive)
same,GI50,ACHN,65.3 µM (inactive)
same,GI50,BT-549,35.2 µM (inactive)
same,GI50,CAKI-1,85.1 µM (inactive)
same,GI50,CCRF-CEM,36.2 µM (inactive)
same,GI50,COLO 205,48.1 µM (inactive)
same,GI50,DU-145,40 µM (inactive)
same,GI50,EKVX,> 100 µM (inactive)
same,GI50,HCC 2998,34.4 µM (inactive)
same,GI50,HCT-116,47.9 µM (inactive)
same,GI50,HCT-15,32.7 µM
same,GI50,HL-60,32.4 µM (inactive)
same,GI50,HOP-62,55.7 µM (inactive)
same,GI50,HT-29,27.5 µM (inactive)
same,GI50,Hs-578T,88.5 µM (inactive)
same,GI50,IGROV-1,39.9 µM (inactive)
same,GI50,K562,42.1 µM (inactive)
same,GI50,KM12,44.6 µM (inactive)
same,GI50,LOX IMVI,31.8 µM (inactive)
same,GI50,M14,66.1 µM (inactive)
same,GI50,MCF7,55.5 µM (inactive)
same,GI50,MDA-MB-231,29.9 µM (inactive)
same,GI50,MDA-MB-435,23.4 µM (inactive)
same,GI50,MDA-N,22.4 µM (inactive)
same,GI50,MOLT-4,34.8 µM (inactive)
same,GI50,Malme-3M,> 100 µM (inactive)
same,GI50,NCI-H226,55.6 µM (inactive)
same,GI50,NCI-H23,64.9 µM (inactive)
same,GI50,NCI-H522,62.1 µM (inactive)
same,GI50,NCI/ADR-RES,31.3 µM (inactive)
same,GI50,OVCAR-3,48.2 µM (inactive)
same,GI50,OVCAR-4,52.1 µM (inactive)
same,GI50,OVCAR-5,50.2 µM (inactive)
same,GI50,OVCAR-8,25.1 µM (inactive)
same,GI50,PC-3,55.3 µM (inactive)
same,GI50,RPMI-8226,37.8 µM (inactive)
same,GI50,RXF 393,17.2 µM (inactive)
same,GI50,SF-268,56.6 µM (inactive)
same,GI50,SF-295,> 100 µM (inactive)
same,GI50,SF-539,22.7 µM (inactive)
same,GI50,SK-MEL-28,47 µM (inactive)
same,GI50,SK-MEL-2,67.3 µM (inactive)
same,GI50,SK-MEL-5,38.3 µM (inactive)
same,GI50,SK-OV-3,> 100 µM (inactive)
same,GI50,SN12C,69.8 µM (inactive)
same,GI50,SNB-19,> 100 µM (inactive)
same,GI50,SNB-75,42.8 µM (inactive)
same,GI50,SR,29.3 µM (inactive)
same,GI50,SW-620,34.6 µM (inactive)
same,GI50,T47D,48.9 µM (inactive)
same,GI50,TK-10,> 100 µM (inactive)
same,GI50,U-251,39.6 µM (inactive)
same,GI50,UACC-257,47.5 µM (inactive)
same,GI50,UACC-62,26.4 µM (inactive)
same,GI50,UO-31,38 µM (inactive)
C=C1C(=O)OC2/C=C(/C)C(OC(C)=O)CC(O)/C(C)=C\C(OC(=O)/C(C)=C\C)C12 (configuration not stated),GI50,786-0,17.1 µM (inactive)
same,GI50,A498,> 100 µM (inactive)
same,GI50,A549,> 100 µM (inactive)
same,GI50,ACHN,42.8 µM (inactive)
same,GI50,BT-549,53.5 µM (inactive)
same,GI50,CAKI-1,30.5 µM (inactive)
same,GI50,CCRF-CEM,28.6 µM (inactive)
same,GI50,COLO 205,34.4 µM (inactive)
same,GI50,DU-145,53.8 µM (inactive)
same,GI50,EKVX,78 µM (inactive)
same,GI50,HCC 2998,> 100 µM (inactive)
same,GI50,HCT-116,18.2 µM (inactive)
same,GI50,HCT-15,36.6 µM
same,GI50,HL-60,17 µM (inactive)
same,GI50,HOP-62,> 100 µM (inactive)
same,GI50,HOP-92,43.6 µM (inactive)
same,GI50,HT-29,66.1 µM (inactive)
same,GI50,Hs-578T,> 100 µM (inactive)
same,GI50,IGROV-1,> 100 µM (inactive)
same,GI50,K562,35.2 µM (inactive)
same,GI50,KM12,> 100 µM (inactive)
same,GI50,LOX IMVI,28.5 µM (inactive)
same,GI50,M14,53.6 µM (inactive)
same,GI50,MCF7,34 µM (inactive)
same,GI50,MDA-MB-231,> 100 µM (inactive)
same,GI50,MDA-MB-435,81.8 µM (inactive)
same,GI50,MDA-N,48.1 µM (inactive)
same,GI50,MOLT-4,29.6 µM (inactive)
same,GI50,Malme-3M,14.3 µM (inactive)
same,GI50,NCI-H226,> 100 µM (inactive)
same,GI50,NCI-H23,> 100 µM (inactive)
same,GI50,NCI-H460,> 100 µM (inactive)
same,GI50,NCI-H522,10.6 µM (inactive)
same,GI50,NCI/ADR-RES,58.9 µM (inactive)
same,GI50,OVCAR-3,46.6 µM (inactive)
same,GI50,OVCAR-4,> 100 µM (inactive)
same,GI50,OVCAR-5,> 100 µM (inactive)
same,GI50,OVCAR-8,35.3 µM (inactive)
same,GI50,PC-3,> 100 µM (inactive)
same,GI50,RPMI-8226,38.7 µM (inactive)
same,GI50,RXF 393,51.9 µM (inactive)
same,GI50,SF-268,> 100 µM (inactive)
same,GI50,SF-295,> 100 µM (inactive)
same,GI50,SF-539,> 100 µM (inactive)
same,GI50,SK-MEL-28,43.2 µM (inactive)
same,GI50,SK-MEL-2,> 100 µM (inactive)
same,GI50,SK-MEL-5,> 100 µM (inactive)
same,GI50,SK-OV-3,> 100 µM (inactive)
same,GI50,SN12C,50.6 µM (inactive)
same,GI50,SNB-19,> 100 µM (inactive)
same,GI50,SNB-75,> 100 µM (inactive)
same,GI50,SR,26.7 µM (inactive)
same,GI50,SW-620,25.8 µM (inactive)
same,GI50,T47D,52.6 µM (inactive)
same,GI50,TK-10,> 100 µM (inactive)
same,GI50,U-251,> 100 µM (inactive)
same,GI50,UACC-257,> 100 µM (inactive)
same,GI50,UACC-62,> 100 µM (inactive)
